The text below walks through data of patent US10702507B2, “Endoparasite control agent” (THE UNIVERSITY OF TOKYO, priority 2014, dated 2020).

The experiment has as its system 1st-stage larvae of Haemonchus contortus. In words: Test for effect on motion of larvae of Haemonchus nematode. As to conditions: 20 larvae per well, 27° C./95% RH for 4 days, corrected against DMSO negative control, duplicate. On the procedure: Test for Effect on Motion of Larvae of Haemonchus Nematode (Haemonchus contortus) The compound of the present invention was prepared as solutions in 100% DMSO at the final concentrations of 50 ppm, 5 ppm, 0.5 ppm, 0.05 ppm and 0.005 ppm. DMSO stands for dimethyl sulfoxide. A larval suspension containing 1st-stage larvae of Haemonchus contortus harvested by the Baermann technique (for example, see K. Nakazono et al., “Inclination of Baermann funnel wall and efficiency of nematode extraction” Proc. Assoc. Pl. Prot. Kyushu 33: 126-130 (1987)) was placed at a density of 20 larvae per well in a test plate, and 0.5 μL/well of the test solution containing the compound of the present invention diluted to a predetermined concentration was added to the test plate. The plate was kept under the conditions of 27° C./95% RH for 4 days. In the test, ivermectin was used for the positive control and DMSO was used for the negative control. The motor ability of the larvae was examined with an automatic analyzer equipped with an LCD camera. The inhibitory effect on the motion of the larvae in each treatment plot was corrected based on the inhibitory effect in the plot treated with DMSO only for the negative control. The EC50 value was calculated from the data on the corrected inhibitory effect on the motion of the larvae, and graded according to the criteria shown below. The test was conducted in duplicate per plot.
Turning to `O=C(NCCc1ccc(Oc2nc3ccccc3s2)cc1Cl)c1ccccc1C(F)(F)F` [Compound 1-15], the “EC50 value of corrected inhibitory effect on the motion of the larvae, graded” value is recorded as “C or higher”. The result for `O=C(NCCc1ccc(Oc2nc3ccc(Cl)cc3s2)cc1Cl)c1ccccc1C(F)(F)F` [Compound 1-16] reads “C or higher”; that for `O=C(NCCc1ccc(Oc2nc3ccccc3o2)cc1Cl)c1ccccc1C(F)(F)F` [Compound 1-17], “C or higher”; that for `O=C(NCCc1ccc(Oc2ccccc2)cc1Cl)c1ccccc1C(F)(F)F` [Compound 1-18], “C or higher”. The result for `O=C(NCCc1ccc(Oc2ccc(C(F)(F)F)cc2)cc1Cl)c1ccccc1C(F)(F)F` [Compound 1-19] reads “C or higher”; that for `O=C(NCCc1ccc(Oc2ncc(C(F)(F)F)cc2Cl)cc1Cl)c1ccccc1I` [Compound 1-20], “C or higher”; that for `O=C(NCCc1ccc(Oc2ccc(C(F)(F)F)cn2)cc1Cl)c1ccccc1I` [Compound 1-21], “C or higher”. Take `O=C(NCCc1ccc(Oc2ncc(Cl)cc2Cl)cc1Cl)c1ccccc1I` [Compound 1-22]: the “EC50 value of corrected inhibitory effect on the motion of the larvae, graded” value is reported as “C or higher”.

In the case of `O=C(NCCc1ccc(Oc2ncc(Br)cc2Cl)cc1Cl)c1ccccc1I` [Compound 1-23], the “EC50 value of corrected inhibitory effect on the motion of the larvae, graded” value is listed as “C or higher”. The result for `O=C(NCCc1ccc(Oc2nccnc2C(F)(F)F)cc1Cl)c1ccccc1I` [Compound 1-24] reads “C or higher”; that for `O=C(NCCc1ccc(Oc2nccnc2Cl)cc1Cl)c1ccccc1I` [Compound 1-25], “C or higher”.

Regarding `O=C(NCCc1ccc(Oc2cnccn2)cc1Cl)c1ccccc1I` [Compound 1-26], the “EC50 value of corrected inhibitory effect on the motion of the larvae, graded” value was “C or higher”. The result for `COc1cc(OC)nc(Oc2ccc(CCNC(=O)c3ccccc3I)c(Cl)c2)n1` [Compound 1-27] reads “C or higher”. Consider `Cc1cc(C)nc(Oc2ccc(CCNC(=O)c3ccccc3I)c(Cl)c2)n1` [Compound 1-28], for which the “EC50 value of corrected inhibitory effect on the motion of the larvae, graded” value is given as “C or higher”. The result for `O=C(NCCc1ccc(Oc2ccnc(Cl)n2)cc1Cl)c1ccccc1I` [Compound 1-29] reads “C or higher”; that for `O=C(NCCc1ccc(Oc2cc(Cl)nc(Cl)n2)cc1Cl)c1ccccc1I` [Compound 1-30], “C or higher”; that for `Cc1cc(Oc2ccc(CCNC(=O)c3ccccc3I)c(Cl)c2)nc(Cl)n1` [Compound 1-31], “C or higher”. The result for `Cc1cnc(Cl)nc1Oc1ccc(CCNC(=O)c2ccccc2I)c(Cl)c1` [Compound 1-32] reads “C or higher”; that for `O=C(NCCc1ccc(Oc2ccc3ccccc3n2)cc1Cl)c1ccccc1I` [Compound 1-34], “C or higher”; that for `O=C(NCCc1ccc(Oc2cnc3ccccc3n2)cc1Cl)c1ccccc1I` [Compound 1-35], “C or higher”. As for `O=C(NCCc1ccc(Oc2nc3ccccc3s2)cc1Cl)c1ccccc1I` [Compound 1-36], the “EC50 value of corrected inhibitory effect on the motion of the larvae, graded” value was “C or higher”. With `O=C(NCCc1ccc(Oc2nc3ccc(Cl)cc3s2)cc1Cl)c1ccccc1I` [Compound 1-37], the “EC50 value of corrected inhibitory effect on the motion of the larvae, graded” value is “C or higher”.

As for `O=C(NCCc1ccc(Oc2nc3ccccc3o2)cc1Cl)c1ccccc1I` [Compound 1-38], the “EC50 value of corrected inhibitory effect on the motion of the larvae, graded” value is listed as “C or higher”. The result for `O=C(NCCc1ccc(Oc2ccccc2)cc1Cl)c1ccccc1I` [Compound 1-39] reads “C or higher”. Take `O=C(NCCc1ccc(Oc2ccc(C(F)(F)F)cc2)cc1Cl)c1ccccc1I` [Compound 1-40]: the “EC50 value of corrected inhibitory effect on the motion of the larvae, graded” value is reported as “C or higher”. Turning to `CC(C)(CNC(=O)c1ccccc1C(F)(F)F)c1ccc(Oc2ncc(C(F)(F)F)cc2Cl)cc1Cl` [Compound 1-44], the “EC50 value of corrected inhibitory effect on the motion of the larvae, graded” value is reported as “C or higher”. The result for `CC(C)(CNC(=O)c1ccccc1C(F)(F)F)c1ccc(Oc2ccc(C(F)(F)F)cn2)cc1Cl` [Compound 1-45] reads “C or higher”. The result for `CC(C)(CNC(=O)c1ccccc1C(F)(F)F)c1ccc(Oc2ncc(Cl)cc2Cl)cc1Cl` [Compound 1-46] reads “C or higher”. On to `O=C(NCC1(c2ccc(Oc3ncc(C(F)(F)F)cc3Cl)cc2Cl)CC1)c1ccccc1C(F)(F)F` [Compound 1-47], for which the “EC50 value of corrected inhibitory effect on the motion of the larvae, graded” value was “C or higher”. `O=C(NCC1(c2ccc(Oc3ccc(C(F)(F)F)cn3)cc2Cl)CC1)c1ccccc1C(F)(F)F` [Compound 1-48]: the “EC50 value of corrected inhibitory effect on the motion of the larvae, graded” value is on record as “C or higher”.

Turning to `O=C(NCC1(c2ccc(Oc3ncc(Cl)cc3Cl)cc2Cl)CC1)c1ccccc1C(F)(F)F` [Compound 1-49], the “EC50 value of corrected inhibitory effect on the motion of the larvae, graded” value is “C or higher”. The result for `O=C(NCCc1ccc(-c2ccc(C(F)(F)F)cc2)cc1Cl)c1ccccc1C(F)(F)F` [Compound 1-50] reads “C or higher”; that for `O=C(NCCc1ccc(-c2cccc(C(F)(F)F)c2)cc1Cl)c1ccccc1C(F)(F)F` [Compound 1-51], “C or higher”; that for `O=C(NCCc1ccc(-c2cc(F)cc(F)c2)cc1Cl)c1ccccc1C(F)(F)F` [Compound 1-52], “C or higher”.

Consider `COc1ccc(-c2ccc(CCNC(=O)c3ccccc3C(F)(F)F)c(Cl)c2)cc1` [Compound 1-53], for which the “EC50 value of corrected inhibitory effect on the motion of the larvae, graded” value is “C or higher”. The result for `O=C(NCCc1ccc(-c2ccccc2)cc1Cl)c1ccccc1C(F)(F)F` [Compound 1-54] reads “C or higher”. On to `O=C(NCCc1ccc(-c2ccncc2)cc1Cl)c1ccccc1C(F)(F)F` [Compound 1-55], for which the “EC50 value of corrected inhibitory effect on the motion of the larvae, graded” value is given as “C or higher”.

In the case of `O=C(NCCc1ccc(-c2cccnc2)cc1Cl)c1ccccc1C(F)(F)F` [Compound 1-56], the “EC50 value of corrected inhibitory effect on the motion of the larvae, graded” value is listed as “C or higher”.

With `COC(CNC(=O)c1ccccc1C(F)(F)F)c1ccc(Oc2nc3ccccc3s2)cc1Cl` (stereo not shown) [Compound 1-63], the “EC50 value of corrected inhibitory effect on the motion of the larvae, graded” value was “C or higher”. The result for `COC(CNC(=O)c1ccccc1C(F)(F)F)c1ccc(Oc2ccc(C(F)(F)F)cc2)cc1Cl` (stereo not shown) [Compound 1-65] reads “C or higher”; that for `COC(CNC(=O)c1ccccc1C(F)(F)F)c1ccc(Oc2cccnc2)cc1Cl` (stereo not shown) [Compound 1-67], “C or higher”. With `O=C(NCCc1ncc(-c2ccccc2)cc1Cl)c1ccccc1C(F)(F)F` [Compound 2-1], the “EC50 value of corrected inhibitory effect on the motion of the larvae, graded” value is given as “C or higher”. The result for `O=C(NCCc1ncc(-c2ccc(C(F)(F)F)cc2)cc1Cl)c1ccccc1C(F)(F)F` [Compound 2-2] reads “C or higher”; that for `O=C(NCCc1ncc(-c2cccc(C(F)(F)F)c2)cc1Cl)c1ccccc1C(F)(F)F` [Compound 2-3], “C or higher”; that for `O=C(NCCc1ncc(-c2cc(F)cc(F)c2)cc1Cl)c1ccccc1C(F)(F)F` [Compound 2-4], “C or higher”.

On to `COc1ccc(-c2cnc(CCNC(=O)c3ccccc3C(F)(F)F)c(Cl)c2)cc1` [Compound 2-5], for which the “EC50 value of corrected inhibitory effect on the motion of the larvae, graded” value is “C or higher”.
